Measured values as given in patent publication US20160353738A1, “SYNERGISTIC HERBICIDAL COMPOSITION CONTAINING PENOXSULAM, TRICLOPYR AND BISPYRIBAC” (Dow AgroSciences LLC, priority 2014, published 2016).

What was measured:
[1] = system: Echinochloa colonum (L.) LINK (junglerice, ECHCO); assay: Postemergence herbicidal activity of mixtures in the field (rice small plots), visual weed control; type: in vivo; details: 30 DAA, 52 g ai/ha
Source text: (§1) Bispyribac was used as Nominee® 100SC or Nominee® 400SC.
(§2) As such, Colby's equation simplifies to […]

[2] = system: Ischaemum rugosum (Saramollagrass, ISCRU); assay: as above; type: in vivo; details: 50 g ai/ha
Source text: as §1, §2

[3] = system: Digitaria species (DIGSS); assay: as above; type: in vivo; details: 50 g ai/ha
Source text: as §1, §2

[4] = system: Rottboellia exaltata (Guineafowlgrass, ROOEX); assay: as above; type: in vivo; details: 50 g ai/ha
Source text: as §1, §2

[5] = system: Rice (Oryza Sativa, ORYSA); assay: Safening activity to rice in the field, visual crop injury; details: 50 g ai/ha
Protocol: The treated plots and control plots were rated blind at various intervals after application.
Colby's equation was used to determine the herbicidal effects expected from the mixtures (Colby, S. R. Calculation of the synergistic and antagonistic response of herbicide combinations. Weeds 1967, 15, 20-22).
However, the experiments described herein were performed such that active ingredients A and B were combined and only the efficacy of the combination was determined. As such, Colby's equation simplifies to […]

Compound: COc1cc(OC)nc(Oc2cccc(Oc3nc(OC)cc(OC)n3)c2C(=O)[O-])n1.[Na+] [Bispyribac-Sodium, sodium 2,6-bis((4,6-dimethoxypyrimidin-2-yl)oxy)benzoate]
- Percent (%) Visual Control [1]: 86.25%
- Percent (%) Visual Control ([2]; 6 DAA): 0%
- Percent (%) Visual Control ([2]; 12 DAA): 30%
- Percent (%) Visual Control ([2]; 16 DAA): 46.8%
- Percent (%) Visual Control ([2]; 17 DAA): 0%
- Percent (%) Visual Control ([2]; 27 DAA): 9.25%
- Percent (%) Visual Control ([2]; 32 DAA): 0%
- Percent (%) Visual Control ([2]; 40 DAA): 0%
- Percent (%) Visual Control ([3]; 6 DAA): 93%
- Percent (%) Visual Control ([3]; 17 DAA): 88%
- Percent (%) Visual Control ([4]; 16 DAA): 87.3%
- Percent (%) Visual Control ([4]; 32 DAA): 69.5%
- Percent (%) Crop Injury ([5]; 6 DAA): 2.2%
- Percent (%) Crop Injury ([5]; 17 DAA): 0.9%
- Percent (%) Crop Injury ([5]; 27 DAA): 3%
